Data as given in patent publication US20240165099A1, “METHODS FOR THE TREATMENT AND PREVENTION OF DISEASES OR INFECTIONS WITH MCP-1 INVOLVEMENT BY ADMINISTRATION OF TAFENOQUINE” (60 DEGREES PHARMACEUTICALS LLC, priority 2022, published 2024).

What was measured:
Vero E6 cells = conditions: 4-day test, mock infected Vero E6 cells
in vitro = conditions: African green monkey, CC50, 4-day test, mock infected Vero E6 cells
Babesia = conditions: mice; single doses for tafenoquine; cited from earlier work
Pneumocystis = conditions: mice; Bartlett et al. 1991; cited from earlier work
COVID-19 disease [1] = assay: Phase II clinical trial, time to clinical recovery in mild-moderate COVID-19; type: in vivo, human
Excerpt: Laboratory endpoint and patient-level individual symptom data were collected in that study, have not been reported elsewhere, and form the basis for surprising findings about the therapeutic and mechanistic effects of tafenoquine described herein.
Longitudinal aggregate symptom data for individual patients from Dow and Smith (2022) were examined to determine the number of days required before each patients reported an aggregate symptom score of 2 for four days of more for the first time. This endpoint was not included as a pre-specified analysis in the original study design, and was only recently confirmed to be an endpoint of interest to regulars in mild-moderate COVID-19 disease in standard risk patients. […] A survival curve was generated, and data were analyzed using Graphpad Prism. […] At Day 28, which was the last day of the study, the proportion of patients with persistent COVID-19 symptoms was lower in the tafenoquine arm.

[2] = tested on: Monocyte chemotactic protein 1 (MCP-1); type: in vivo, human
SARS-CoV-2 [3] = assay: Nasopharyngeal viral load change from baseline, regression analysis; type: in vivo, human; conditions: Log10 viral copy number/ml; baseline through Day 5; P 0.8650
Protocol: NP swabs were collected at Baseline and Day 5 and Log10 viral copy number/ml was determined utilizing the standard commercially available assay from Eurofins. Only samples from patients where valid baseline and Day 5 results were obtained were analyzed. Samples with values below the dynamic range of the assay were assigned a value equivalent to the detection limit. Samples with […] were assigned a value equivalent to half the detection limit. Viremia change from baseline was calculated by subtracting log 10 Day 5 copy number from the log 10 baseline copy number. Log10 Baseline and change from baseline values were used in the analyses.
Multivariate regression analysis (performed utilizing the standard built-in program in Graphpad Prism 9.3.1) was used to analyze the following dependent variables: Change in NP viral load from baseline through Day 5 (Regression 1) and total anti SARS-CoV-2 antibody change from baseline through Day 14 (Regression 2). The dependent variable data were tested to ensure that they passed at least three of four tests of normality (Anderson-Darling, D'Agostino-Pearson, Shapiro-Wilk and Kolmogorov-Smirnov tests) according to the standard built-in programs in GraphPad. The same independent variables described in Example 6 were utilized. […]

[4] = tested on: total anti SARS-CoV-2 spike protein antibody; type: in vivo, human
SARS-CoV-2 [5] = type: cell-based; conditions: calculated relative to the CC50 for the 4-day test
COVID-19 disease [6] = conditions: mild-moderate COVID-19; exploratory analyses; P<0.02; Dow and Smith 2022; cited from earlier work
[7] = tested on: blood stages of P. falciparum; conditions: Baird et al. 2002; McCarthy et al. 2019; cited from earlier work
[8] = in vivo; cited from earlier work
[9] = doses of up to 1200 mg over three days; Green et al 2014; cited from earlier work
[10] = predicted Day 5 values, all group comparisons vs placebo, independent of vaccination or baseline MCP-1

## CCN(CCO)CCCC(C)Nc1ccnc2cc(Cl)ccc12 (centres unmarked) [Hydroxychloroquine]
Vero E6 cells
  CC50: 67 µM
In vitro
  CC50: ~55 µM

## COc1cc(NC(C)CCCN)c2ncccc2c1 (centres unmarked) [Primaquine]
Babesia
  dose that cleared Babesia parasitemia: 100 mg/kg
Pneumocystis
  cure of Pneumocystis infections: must be combined with clindamycin

## COc1cc(C)c2c(Oc3cccc(C(F)(F)F)c3)c(OC)cc(NC(C)CCCN)c2n1 (centres unmarked) [Tafenoquine]
COVID-19 disease [1]; COVID-19 patients, 200 mg on Days 1, 2, 3 and 10, sustained recovery for four days or more, placebo 16 days
  median time to clinical recovery: 13 days
COVID-19 disease [1]; tafenoquine arm vs placebo, Day 28
  proportion of patients with persistent COVID-19 symptoms at Day 28: lower
[2]; Day 5 value − Baseline value, P 0.0093
  Regression 1: MCP1 Day 5 CFB (Multivariate), Beta for Treatment (TQ = 1, PL = 0): −74.4/
[2]; baseline MCP-1 exceeding 350 units/ml, P 0.3304
  Regression 2: MCP1 Day 14 CFB for high baseline MCP1, Beta for Treatment: 78.9/
[2]; baseline MCP-1 less than 350 units/ml, P 0.2356
  Regression 3: MCP1 Day 14 CFB for low baseline MCP1, Beta for Treatment: −35.0/
[2]; human, in vivo
  Regression: MCP1 Day 14 CFB (rank-transformed), Beta for Treatment: 0.584//
[2]; [10]
  reduction in Day 5 MCP-1 (absolute): at least 41
  reduction in Day 5 MCP-1 (percent): ≥ 10%
[2]; univariate, P 0.2548
  Regression 1: MCP1 Day 5 (Univariate), Beta for Treatment: −45.2/
SARS-CoV-2 [3]
  Regression 1: NP Viral Load CFB, Beta for Treatment (TQ = 1, PL = 0): −0.0735/
[4]; P=0.546 as printed
  effect on total anti-SARS-CoV-2 antibody generation: did not affect
[4]; in vivo
  Regression 2: Antibodies CFB (unvaccinated), Beta for Treatment: −0.671/
SARS-CoV-2 [5]
  selectivity index: 14.3
COVID-19 disease [6]
  recovery from fever, cough and shortness of breath: accelerate recovery
Babesia
  dose that cleared Babesia parasitemia: 20 mg/kg
[7]
  activity against the blood stages of P. falciparum: quite effective
Pneumocystis
  cure of Pneumocystis infections: can be administered as monotherapy to cure
[8]
  half-life: 14 days
[9]
  effect on upper limit of 90% confidence interval of the QTC interval: not found to increase
